The source of these data is ChEMBL document CHEMBL1151072, “Benzoxepin and benzothiepin derivatives as potent, orally active inhibitors of 5-lipoxygenase” (Bioorg Med Chem Lett, 1994).

What is called inhibition in vivo is the percentage by which the read-out fell short of the control. Low values mean little suppression, high ones strong suppression.

Structures are written as SMILES. Some results are limits rather than exact numbers.

Experiment [1] relates to Canis familiaris. The experiment can be described thus: Inhibitory activity against LTB4 production upon intravenous administration at a dose of 1.0 mg/Kg (0.08-6.0 hour) in dog ex vivo model. The format is functional. As to conditions: Canis lupus familiaris.
Experiment [2] deals with Canis familiaris. The experiment can be described thus: Inhibitory activity against LTB4 production upon oral administration at a dose of 1.0 mg/Kg (0.08-6.0 hour) in dog ex vivo model. The format is functional. As to conditions: Canis lupus familiaris.
The test system of experiment [3] is Canis familiaris. The experiment can be described thus: Inhibitory activity against LTB4 production upon intravenous administration at a dose of 1.0 mg/Kg (0.08-1 hour) in dog ex vivo model. The format is functional. The conditions noted are these: Canis lupus familiaris.
Experiment [4] concerns Canis familiaris. The experiment can be described thus: Duration of action on LTB4 production upon intravenous administration at a dose of 1.0 mg/Kg in dog ex vivo model. Type of experiment: functional, Canis lupus familiaris.
Experiment [5] relates to Canis familiaris. Put plainly: Inhibitory activity against LTB4 production upon intravenous administration at a dose of 1.0 mg/Kg (0.25-0.5 hour) in dog ex vivo model. The format is functional. The conditions noted are these: Canis lupus familiaris.
In experiment [6] the test system is Canis familiaris. The experiment can be described thus: Duration of action on LTB4 production upon oral administration at a dose of 1.0 mg/Kg in dog ex vivo model. Type of experiment: functional, Canis lupus familiaris.
In experiment [7] the test system is Canis familiaris. Put plainly: Inhibitory activity against LTB4 production upon oral administration at a dose of 1.0 mg/Kg (1 hour) in dog ex vivo model. Type of experiment: functional. The conditions noted are these: Canis lupus familiaris.
For experiment [8], the system named is Canis familiaris. Put plainly: Inhibitory activity against LTB4 production upon oral administration at a dose of 1.0 mg/Kg (0.5-1 hour) in dog ex vivo model. The conditions noted are these: Canis lupus familiaris. The format is functional.
The test system of experiment [9] is Canis familiaris. The experiment can be described thus: Inhibitory activity against LTB4 production upon intravenous administration at a dose of 1.0 mg/Kg (0.08-0.5 hour) in dog ex vivo model. The format is functional. As to conditions: Canis lupus familiaris.
Experiment [10] deals with Canis familiaris. Put plainly: Inhibitory activity against LTB4 production upon oral administration at a dose of 1.0 mg/Kg (0.5 hours) in dog ex vivo model. Type of experiment: functional. As to conditions: Canis lupus familiaris.
Experiment [11] has as its system Canis familiaris. The experiment can be described thus: Inhibitory activity against LTB4 production upon intravenous administration at a dose of 1.0 mg/Kg (3 hours) in dog ex vivo model. The format is functional. As to conditions: Canis lupus familiaris.
Experiment [12] has as its system Canis familiaris. The experiment can be described thus: Inhibitory activity against LTB4 production upon oral administration at a dose of 1.0 mg/Kg (0.25-6.0 hour) in dog ex vivo model. Type of experiment: functional. The conditions noted are these: Canis lupus familiaris.
For experiment [13], the system named is Canis familiaris. Put plainly: Inhibitory activity against LTB4 production upon intravenous administration at a dose of 1.0 mg/Kg (0.08 hours) in dog ex vivo model. The format is functional. The conditions noted are these: Canis lupus familiaris.

With `NC(=O)N(O)CC1=Cc2cc(Oc3ccccc3)ccc2OC1`, the inhibition in vivo at 1 mg/kg in the experiment on Canis familiaris [1] and in the experiment on Canis familiaris [2] was greater than 95% throughout.

`NC(=O)N(O)CC1=Cc2cc(Oc3ccccc3)ccc2SCC1`: the inhibition in vivo at 1 mg/kg with Canis familiaris [3] was greater than 95%. This compound showed a Duration of action in the experiment on Canis familiaris [4] of 2.8.

Take `NC(=O)N(O)CC1=Cc2cc(Oc3ccc(F)cc3)ccc2OCC1`: the inhibition in vivo at 1 mg/kg in the experiment on Canis familiaris [5] and with Canis familiaris [7] was greater than 95% in each case. The Duration of action in the experiment on Canis familiaris [6] was 10; in the experiment with Canis familiaris [4], greater than 24.

As for `CC(c1cc2ccccc2s1)N(O)C(N)=O` (stereo unspecified) [ZILEUTON], the inhibition in vivo at 1 mg/kg with Canis familiaris [8] and with Canis familiaris [9] was greater than 90% throughout.

As for `NC(=O)N(O)CC1=Cc2cc(Oc3ccccc3)ccc2OCC1`, the Duration of action with Canis familiaris [6] was 9.1; with Canis familiaris [4] it was 19.4. Further, the inhibition in vivo at 1 mg/kg in the experiment with Canis familiaris [10] was 94%; in the experiment with Canis familiaris [11] it was 80%.

Consider `CNC(=O)N(O)CC1=Cc2cc(Oc3ccc(F)cc3)ccc2OCC1`, for which the Duration of action in the experiment with Canis familiaris [6] and in the experiment with Canis familiaris [4] was 13 each time. In addition, the inhibition in vivo at 1 mg/kg with Canis familiaris [12] and in the experiment on Canis familiaris [3] was greater than 95% each time.

For `NC(=O)N(O)CC1=Cc2ccc(Oc3ccccc3)cc2OCC1`, the inhibition in vivo at 1 mg/kg with Canis familiaris [13] was greater than 95%; in the experiment with Canis familiaris [7], 28%. Moreover, in the experiment with Canis familiaris [4], the Duration of action came out at 1.1.
